For 19 compounds, GI50 and IC50 results are on record in US11566017B2, “Dihydroquinazolinone compound or pharmacologically acceptable salt, and cell growth inhibitor” (RIKEN, priority 2017, dated 2023).

Some results are limits rather than exact numbers.

Assay [1] deals with human colorectal cancer cell line COLO-320DM. The experiment in a line: Cell proliferation inhibitory activity test (Celltiter-Glo). In kind it is cell-based. To be noted: COLO-320DM cells, 96 hours. As to the method:
The cell proliferation inhibitory activity of the compound, which had been prepared in each of Examples, against the human colorectal cancer cell line COLO-320DM was evaluated by Celltiter-Glo Luminescent Cell Viability Assay (Promega Corporation; G7573). COLO-320DM cells were cultured in RPMI-1640 medium containing 2 mM glutamine (Wako Pure Chemical Industries, Ltd; 189-02025) supplemented with 10% fetal bovine serum. The cultured cells were washed with PBS, and then dissociated with trypsin/EDTA, and a cell solution with 3×10^4 cells/mL was prepared.
Subsequently, the cell solution was seeded in a 96-well microplate (Thermo/Nunc Company; 136101) in an amount of 70 μL per well, and cultured overnight under the condition of 37° C. and 5% CO2. Next day, a test compound solution obtained by diluting the test compound (DMSO solution) with a cell culture medium (final concentration of DMSO was 1%) was added in an amount of 10 μL per well, and the mixture was reacted under the condition of 37° C. and 5% CO2 for 96 hours (a 1% DMSO solution was used as a control). Thereafter, a Celltiter-GloLuminescent Cell Viability Assay reagent (Promega Corporation; G7573) was added in an amount of 80 μL per well, the mixture was stirred with a shaker for 2 minutes while light was blocked with an aluminum foil, and the mixture was incubated at room temperature for 10 minutes.
Thereafter, a luminescence signal was measured with a luminometer (Biotech Company; Synergy). The ratio of cell proliferation in each compound addition group to cell proliferation in a control group containing no test compound solution, where cell proliferation in the control group is 100%, was calculated and the value of a compound concentration necessary for suppressing the amount of residual cells to 50% of that in the control (GI50) was calculated as the cytostatic activity. […] An unevaluated test compound was designated as “NT”.

For assay [2], the target named is T1, tankyrase 2 (TNKS2) (Homo sapiens, UniProt Q9H2K2).
T1 construct: tankyrase 2 (613-1,116aa, ANK5+SAM+PARP); made in house; host or cells: cell-free protein expression system
The experiment in a line: Tankyrase inhibitory activity test (ELISA, auto-poly(ADP-ribosyl)ation), tankyrase 2. Type of assay: biochemical. To be noted: Flag tagged tankyrase 2 (613-1,116aa, ANK5+SAM+PARP); read-out: TNKS2 (inhibitory activity against tankyrase 2, IC50). As to the method: (§1) The enzymatic activity of tankyrase 1 and the enzymatic activity of tankyrase 2 were measured by the ELISA method based on assessment of auto-poly(ADP-ribosyl)ation to evaluate the tankyrase inhibitory activity of the compound prepared in each of Examples (test compound) (inhibitory activity against tankyrase 1 (TNKS1) and inhibitory activity against tankyrase 2 (TNKS2)). First, Flag tagged tankyrase 1 (1,024-1,327aa, SAM+PARP) and tankyrase 2 (613-1,116aa, ANK5+SAM+PARP) were synthesized with a cell-free protein expression system, and diluted with a Tris buffer solution (50 mM Tris-HCl (pH 8.0), 150 mM NaCl, 10% glycerol). 50 μL of the diluted tankyrase 1 or tankyrase 2 was added to a plate with an anti-FLAG M2 monoclonal antibody immobilized thereon (Anti-FLAG High-Sensitivity M2-Coated Plate) (Sigma-Aldrich), and the plate was left standing overnight at 4° C. Thereafter, the plate was washed four times with a PBS (PBST) buffer containing 0.1% Triton X-100. For Example 84, the Anti-FLAG High-Sensitivity M2-Coated Plate was replaced by an immunoplate (Thermo Fisher Scientific), tankyrase 1 or tankyrase 2 was immobilized on the immunoplate, and the immunoplate was then blocked with Blocking One (nacalai tesque), then washed with a PBS (PBST) buffer, and used as the following plate.
(§2) Subsequently, the test compound diluted with an assay buffer (50 mM Tris-HCl (pH 8.0), 4 mM MgCl2, 0.2 mM DTT) (DMSO was used as a control) was added to each well of the plate, and the plate was left standing at room temperature for 10 minutes. Thereafter, a biotin-labeled NAD solution (225 μM NAD, 25 μM 6-Biotin-17-NAD (Travigen, Inc.)) was added and mixed as a donor substrate, and the mixture was reacted at 30° C. for 45 minutes. To blank wells was added distilled water instead of the biotin-labeled NAD solution. After the reaction, the plate was washed with a PBST buffer four times. Thereafter, HRP (horseradish peroxidase)-labeled streptavidin (Travigen, Inc.) was diluted with a PBS buffer by 1,000 times, and added to each well, and the mixture was reacted at room temperature for 20 minutes. The plate was washed with a PBST buffer four times, a chemiluminescent substrate solution TACS-Sapphire (Travigen, Inc.) was then added to each well, the mixture was reacted at room temperature for 20 minutes, and the chemiluminescence intensity was measured using a chemiluminescence measuring apparatus. For Example 84, the streptavidin was diluted by 5,000 times, the chemiluminescent substrate solution TACS-Sapphire was replaced by an ELISA POD substrate TMB solution easy (nacalai tesque), the mixture was reacted at room temperature for 30 minutes, and the chemiluminescence intensity was measured using a chemiluminescence measuring apparatus.
(§3) The residual enzymatic activity in the presence of the test compound was determined from the following expression. On the basis of the residual enzymatic activity at each of multiple concentrations of the test compound, the enzyme inhibitory activity was calculated in terms of a 50%-inhibition concentration (IC50 value) using data analysis software Origin (LightStone Corp.). Residual activity (%)={(chemiluminescence intensity with test compound added)−(chemiluminescence intensity of blank)}/{(chemiluminescence intensity of control)−(chemiluminescence intensity of blank)}

Assay [3] deals with T2, tankyrase 1 (TNKS1) (Homo sapiens, UniProt O95271).
T2 construct: tankyrase 1 (1,024-1,327aa, SAM+PARP); made in house; host or cells: cell-free protein expression system
The assay can be described thus: Tankyrase inhibitory activity test (ELISA, auto-poly(ADP-ribosyl)ation), tankyrase 1. In kind it is biochemical. The settings on record: Flag tagged tankyrase 1 (1,024-1,327aa, SAM+PARP); read-out: TNKS1 (inhibitory activity against tankyrase 1, IC50). As to the method:
as §1, §2, §3

T2 sequence (O95271 1024-1327): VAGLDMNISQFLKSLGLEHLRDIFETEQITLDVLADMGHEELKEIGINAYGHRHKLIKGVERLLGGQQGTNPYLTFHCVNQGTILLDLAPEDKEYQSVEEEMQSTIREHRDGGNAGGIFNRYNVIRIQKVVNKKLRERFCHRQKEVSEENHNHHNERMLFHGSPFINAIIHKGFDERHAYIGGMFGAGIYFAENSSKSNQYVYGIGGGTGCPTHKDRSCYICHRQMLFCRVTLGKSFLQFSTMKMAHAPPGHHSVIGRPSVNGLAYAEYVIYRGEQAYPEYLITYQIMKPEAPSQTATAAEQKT

Regarding `CN1CCN(Cc2cccc(-c3cccc(-c4n[nH]cc4C4NC(=O)c5ccccc5N4C)c3)c2)CC1` (stereo not drawn) [Example 33], in assay [1], the GI50 is not below 10000 nM. The IC50 in assay [2] and in assay [3] was 20 to 50 nM each time.

For the compound `CN(C)c1ccc(-c2ccc(-c3n[nH]cc3C3NC(=O)c4ccccc4N3C)cc2)cc1` (stereo not drawn) [Example 34, 2-[5-[4-[4-(Dimethylamino)phenyl]phenyl]-1H-pyrazol-4-yl]-1-methyl-2,3-dihydroquinazolin-4-one], the GI50 in assay [1] lay in the range of 1000 to 10000 nM. Further, the IC50 in assay [2] and in assay [3] was 20 to 50 nM in each case.

With `CN(C)c1ccc(-c2cccc(-c3n[nH]cc3C3NC(=O)c4ccccc4N3C)c2)cc1` (stereo not drawn) [Example 35, 2-[5-[3-[4-(Dimethylamino)phenyl]phenyl]-1H-pyrazol-4-yl]-1-methyl-2,3-dihydroquinazolin-4-one], the GI50 in assay [1] is not below 10000 nM. Further, the IC50 in assay [2] and in assay [3] was 20 to 50 nM each time.

In the case of `CCOC(=O)Cc1ccc(-c2ccc(-c3[nH]ncc3C3NC(=O)c4ccccc4N3C)cc2)cc1` (stereo not drawn) [Example 36, Ethyl 2-[4-[4-[4-(1-methyl-4-oxo-2,3-dihydroquinazolin-2-yl)-1H-pyrazol-5-yl]phenyl]phenyl]acetate], the GI50 in assay [1] was not below 10000 nM. Further, the 50% inhibitory concentration (IC50) in assay [2] and in assay [3] was 20 to 50 nM each time.

As for `CCOC(=O)Cc1ccc(-c2cccc(-c3n[nH]cc3C3NC(=O)c4ccccc4N3C)c2)cc1` (stereo not drawn) [Example 37, Ethyl 2-[4-[3-[4-(1-methyl-4-oxo-2,3-dihydroquinazolin-2-yl)-1H-pyrazol-5-yl]phenyl]phenyl]acetate], the 50% growth inhibitory concentration (GI50) in assay [1] was not below 10000 nM. The IC50 in assay [2] and in assay [3] was 20 to 50 nM throughout.

`CN1CCN(c2cccc(-c3ccc(-c4[nH]ncc4C4NC(=O)c5ccccc5N4C)cc3)c2)CC1` (stereo not drawn) [Example 38, 1-Methyl-2-[5-[4-[3-(4-methylpiperazin-1-yl)phenyl]phenyl]-1H-pyrazol-4-yl]-2,3-dihydroquinazolin-4-one]: the GI50 in assay [1] was in the range of 1000 to 10000 nM. Further, the IC50 in assay [2] and in assay [3] was 20 to 50 nM in each case.

Turning to `CN1c2ccccc2C(=O)NC1c1c[nH]nc1-c1ccc(-c2ccnc3[nH]ccc23)cc1` (stereo not drawn) [Example 39, 1-Methyl-2-[3-[4-(1H-pyrrolo[2,3-b]pyridin-4-yl)phenyl]-1H-pyrazol-4-yl]-2,3-dihydroquinazolin-4-one], the GI50 in assay [1] is not below 10000 nM. In addition, the IC50 in assay [2] and in assay [3] was 20 to 50 nM throughout.

As for `CN1c2ccccc2C(=O)NC1c1c[nH]nc1-c1ccc(-c2ccnc3ccccc23)cc1` (stereo not drawn) [Example 40, 1-Methyl-2-[3-(4-quinolin-4-ylphenyl)-1H-pyrazol-4-yl]-2,3-dihydroquinazolin-4-one], the GI50 in assay [1] was not below 10000 nM. The IC50 in assay [2] and in assay [3] was 20 to 50 nM in each case.

Regarding `CN1c2ccccc2C(=O)NC1c1c[nH]nc1-c1ccc(-c2ccc(N3CCNCC3)cc2)cc1` (stereo not drawn) [Example 41], in assay [1], the GI50 lay within 1000 to 10000 nM. Besides, the IC50 lay within 5 to 20 nM in assay [2] and 20 to 50 nM in assay [3].

On to `CN1c2ccccc2C(=O)NC1c1c[nH]nc1-c1cccc(Cl)c1` (stereo not drawn) [Example 42, 2-[3-(3-Chlorophenyl)-1H-pyrazol-4-yl]-1-methyl-2,3-dihydroquinazolin-4-one], for which the GI50 in assay [1] was in the range of 1000 to 10000 nM. For the same compound, the IC50 lay in the range of 5 to 20 nM in assay [2] and 20 to 50 nM in assay [3].

With `CN1c2ccccc2C(=O)NC1c1c[nH]nc1-c1ccc(Br)c(F)c1` (stereo not drawn) [Example 43, 2-[3-(4-Bromo-3-fluorophenyl)-1H-pyrazol-4-yl]-1-methyl-2,3-dihydroquinazolin-4-one], the GI50 in assay [1] was not below 10000 nM. Besides, the IC50 in assay [2] and in assay [3] was less than 5 nM throughout.

For `CN1CCN(c2ccc(-c3ccc(-c4n[nH]cc4C4NC(=O)c5ccccc5N4C)cc3F)cc2)CC1` (stereo not drawn) [Example 44, 2-[5-[3-Fluoro-4-[4-(4-methylpiperazin-1-yl)phenyl]phenyl]-1H-pyrazol-4-yl]-1-methyl-2,3-dihydroquinazolin-4-one], the GI50 in assay [1] was in the range of 1000 to 10000 nM. Also, the IC50 in assay [2] and in assay [3] was 5 to 20 nM each time.

As to `CN1c2ccccc2C(=O)NC1c1c[nH]nc1-c1ccc(OCc2ccccc2)c(F)c1` (stereo not drawn) [Example 45, 2-[3-(3-Fluoro-4-phenylmethoxyphenyl)-1H-pyrazol-4-yl]-1-methyl-2,3-dihydroquinazolin-4-one], the GI50 in assay [1] fell in the range of 1000 to 10000 nM. Moreover, the IC50 in assay [2] and in assay [3] was less than 5 nM each time.

As for `CCOc1ccc(-c2n[nH]cc2C2NC(=O)c3ccccc3N2C)cc1` (stereo not drawn) [Example 46, 2-[5-(4-Ethoxyphenyl)-1H-pyrazol-4-yl]-1-methyl-2,3-dihydroquinazolin-4-one], in assay [1], the GI50 lay within 1000 to 10000 nM. For the same compound, the IC50 in assay [2] and in assay [3] was less than 5 nM each time.

Consider `CN1c2ccccc2C(=O)NC1c1c[nH]nc1-c1cc(F)cc(F)c1` (stereo not drawn) [Example 47, 2-[3-(3,5-Difluorophenyl)-1H-pyrazol-4-yl]-1-methyl-2,3-dihydroquinazolin-4-one], for which the GI50 in assay [1] is not below 10000 nM. For the same compound, the results for the IC50 in assay [2] and in assay [3] were 5 to 20 nM and 20 to 50 nM, respectively.

Regarding `CN1c2ccccc2C(=O)NC1c1c[nH]nc1-c1ccc(OC(F)(F)F)cc1` (stereo not drawn) [Example 48, 1-Methyl-2-[3-(4-(trifluoromethoxy)phenyl)-1H-pyrazol-4-yl]-2,3-dihydroquinazolin-4-one], the GI50 in assay [1] is 1000 to 10000 nM. Besides, the IC50 was 5 to 20 nM in assay [2] and 20 to 50 nM in assay [3].

On to `COc1c(F)cc(-c2n[nH]cc2C2NC(=O)c3ccccc3N2C)cc1F` (stereo not drawn) [Example 49, 2-[5-(3,5-Difluoro-4-methoxyphenyl)-1H-pyrazol-4-yl]-1-methyl-2,3-dihydroquinazolin-4-one], for which the GI50 in assay [1] is not below 10000 nM. Also, the figures for the IC50 in assay [2] and in assay [3] were 5 to 20 nM and 20 to 50 nM, respectively.

With `COc1ccc(-c2[nH]ncc2C2NC(=O)c3cccc(C)c3N2)cc1` (stereo not drawn) [Example 50, 2-[5-(4-Methoxyphenyl)-1H-pyrazol-4-yl]-8-methyl-2,3-dihydro-1H-quinazolin-4-one], in assay [1], the concentration for 50% growth inhibition (GI50) is not below 10000 nM. In addition, the IC50 in assay [2] and in assay [3] was 5 to 20 nM throughout.

Regarding `Cc1cccc2c1NC(c1cn[nH]c1-c1ccc(-c3ccc(N4CCN(C)CC4)cc3)cc1)NC2=O` (stereo not drawn) [Example 51, 8-Methyl-2-[5-[4-[4-(4-methylpiperazin-1-yl)phenyl]phenyl]-1H-pyrazol-4-yl]-2,3-dihydro-1H-quinazolin-4-one], in assay [1], the GI50 was in the range of 1000 to 10000 nM. The IC50 in assay [2] and in assay [3] was 20 to 50 nM throughout.
